“And” between values parts separate entries of the source, which are not always exact repeats. Identical values can stand only once. Each block holds one molecule with its values, some of them ahead of it.
How the values were obtained:
human PPARalpha = biological target: T1, human PPARalpha (Homo sapiens, UniProt Q07869); assay: Cellular PPARalpha assay (stably transfected HEK luciferase reporter cell line); assay type: cell-based; settings: PPARalpha reporter cell line (HEK, GR-GAL4-humanPPARalpha-LBD), 24 h incubation
T1 construct: human PPARalpha receptor (amino acids S167-Y468); expressed in transfected cells; host or cells: HEK cells, stably transfected (pcDNA3 construct)
T1 sequence (Q07869 167-468): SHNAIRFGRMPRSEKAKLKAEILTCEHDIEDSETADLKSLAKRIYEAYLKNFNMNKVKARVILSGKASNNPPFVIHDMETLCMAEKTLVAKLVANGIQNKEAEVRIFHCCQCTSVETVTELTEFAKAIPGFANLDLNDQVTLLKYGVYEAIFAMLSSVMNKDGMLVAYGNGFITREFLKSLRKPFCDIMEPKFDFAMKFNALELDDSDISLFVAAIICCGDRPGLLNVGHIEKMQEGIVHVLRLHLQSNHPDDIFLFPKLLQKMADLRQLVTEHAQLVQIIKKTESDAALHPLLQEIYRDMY
Description: Determination of EC50 Values of PPAR Agonists in the Cellular PPARalpha Assay
The potency of substances which bind to human PPARalpha and activate it in an agonistic manner is analyzed using a stably transfected HEK cell line (HEK=human embryo kidney) which is referred to here as PPARalpha reporter cell line. It contains two genetic elements, a luciferase reporter element (pdeltaM-GAL4-Luc-Zeo) and a PPARalpha fusion protein (GR-GAL4-humanPPARalpha-LBD) which mediates expression of the luciferase reporter element depending on a PPARalpha ligand. The stably and constitutively expressed fusion protein GR-GAL4-humanPPARalpha-LBD binds in the cell nucleus of the PPARalpha reporter cell line via the GAL4 protein portion to the GAL4 DNA binding motifs 5′-upstream of the luciferase reporter element which is stably integrated in the genome of the cell line. There is only little expression of the luciferase reporter gene without addition of a PPARalpha ligand if fatty acid-depleted fetal calf serum (cs-FCS) is used in the assay. PPARalpha ligands bind and activate the PPARalpha fusion protein and thereby bring about expression of the luciferase reporter gene. The luciferase which is formed can be detected by means of chemiluminescence via an appropriate substrate.
Construction of the Cell Line
The PPARalpha reporter cell line was prepared in two steps. Firstly, the luciferase reporter element was constructed and stably transfected into HEK cells. For this purpose, five binding sites of the yeast transcription factor GAL4 (in each case 5′-CGGAGTACTGTCCTCCGAG-3′) were cloned in 5′-upstream of a 68 bp-long minimal MMTV promoter (Genbank Accession # V01175). The minimal MMTV promoter section contains a CCAAT box and a TATA element in order to enable efficient transcription by RNA polymerase II. The cloning and sequencing of the GAL4-MMTV construct took place in analogy to the description of Sambrook J. et. al. (Molecular cloning, Cold Spring Harbor Laboratory Press, 1989). Then the complete Photinus pyralis luciferase gene (Genbank Accession # M15077) was cloned in 3′-downstream of the GAL4-MMTV element. After sequencing, the luciferase reporter element consisting of five GAL4 binding sites, MMTV promoter and luciferase gene was subcloned into a plasmid which confers zeozin resistance in order to obtain the plasmid pdeltaM-GAL4-Luc-Zeo. This vector was transfected into HEK cells in accordance with the statements in Ausubel, F. M. et al. (Current protocols in molecular biology, Vol. 1-3, John Wiley & Sons, Inc., 1995).
In a second step, the PPARalpha fusion protein (GR-GAL4-humanPPARalpha-LBD) was introduced into the stable cell clone described. For this purpose, initially the cDNA coding for the N-terminal 76 amino acids of the glucocorticoid receptor (Genbank Accession # P04150) was linked to the cDNA section coding for amino acids 1-147 of the yeast transcription factor GAL4 (Genbank Accession # P04386). The cDNA of the ligand-binding domain of the human PPARalpha receptor (amino acids S167-Y468; Genbank Accession # S74349) was cloned in at the 3′ end of this GR-GAL4 construct. The fusion construct prepared in this way (GR-GAL4-humanPPARalpha-LBD) was subcloned into the plasmid pcDNA3 (from Invitrogen) in order to enable constitutive expression therein by the cytomegalovirus promoter. This plasmid was linearized with a restriction endonuclease and stably transfected into the previously described cell clone containing the luciferase reporter element. The finished PPARalpha reporter cell line which contains a luciferase reporter element and constitutively expresses the PPARalpha fusion protein (GR-GAL4-humanPPARalpha-LBD) was isolated by selection with zeozin (0.5 mg/ml) and G418 (0.5 mg/ml).
The activity of PPARalpha agonists is determined in a 3-day assay which is described below: […]

human PPARgamma = biological target: T2, human PPARgamma (Homo sapiens, UniProt P37231); assay: Cellular PPARgamma assay (transiently transfected HEK cells, luciferase reporter); assay type: cell-based; settings: HEK cells transiently transfected with GAL4-humanPPARgammaLBD, 48 h incubation
T2 construct: human PPARgamma receptor (amino acids 1152-Y475); expressed in transfected cells; host or cells: HEK cells, transiently transfected with pcDNA3-GAL4-humanPPARgammaLBD
T2 sequence (P37231 182-477 isoform P37231-2 limits assumed): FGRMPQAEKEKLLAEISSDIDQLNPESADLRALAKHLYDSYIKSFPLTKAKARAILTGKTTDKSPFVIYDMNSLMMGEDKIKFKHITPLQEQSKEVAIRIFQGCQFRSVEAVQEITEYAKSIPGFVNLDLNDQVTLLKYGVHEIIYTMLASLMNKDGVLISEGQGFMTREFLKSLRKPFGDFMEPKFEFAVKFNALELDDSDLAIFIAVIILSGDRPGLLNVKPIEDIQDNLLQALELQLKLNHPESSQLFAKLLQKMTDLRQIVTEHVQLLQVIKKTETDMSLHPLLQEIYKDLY
Source text: Determination of EC50 Values of PPAR Agonists in the Cellular PPARgamma Assay
A transient transfection system is employed to determine the cellular PPARgamma activity of PPAR agonists. It is based on the use of a luciferase reporter plasmid (pGL3basic-5×GAL4-TK) and of a PPARgamma expression plasmid (pcDNA3-GAL4-humanPPARgammaLBD). Both plasmids are transiently transfected into human mbryonic kidney cells (HEK cells). There is then expression in these cells of the usion protein GAL4-humanPPARgammaLBD which binds to the GAL4 binding sites of he reporter plasmid. In the presence of a PPARgamma-active ligand, the activated usion protein GAL4-humanPPARgammaLBD induces expression of the luciferase reporter gene, which can be detected in the form of a chemiluminescence signal after addition of a luciferase substrate. As a difference from the stably transfected PPARalpha reporter cell line, in the cellular PPARgamma assay the two components (luciferase reporter plasmid and PPARgamma expression plasmid) are transiently transfected into HEK cells because stable and permanent expression of the PPARgamma fusion protein is cytotoxic.
Construction of the Plasmids
The luciferase reporter plasmid pGL3basic-5×GAL4-TK is based on the vector pGL3basic from Promega. The reporter plasmid is prepared by cloning five binding sites of the yeast transcription factor GAL4 (each binding site with the sequence 5′-CTCGGAGGACAGTACTCCG-3′), together with a 160 bp-long thymidine kinase promoter section (Genbank Accession # AF027128) 5′-upstream into pGL3basic. 3′-downstream of the thymidine kinase promoter is the complete luciferase gene from Photinus pyralis (Genbank Accession # M15077), which is already a constituent of the plasmid pGL3basic used. The cloning and sequencing of the reporter plasmid pGL3basic-5×GAL4-TK took place in analogy to the description in Sambrook J. et. al. (Molecular cloning, Cold Spring Harbor Laboratory Press, 1989).
The PPARgamma expression plasmid pcDNA3-GAL4-humanPPARgammaLBD was prepared by first cloning the cDNA coding for amino acids 1-147 of the yeast transcription factor GAL4 (Genbank Accession # P04386) into the plasmid pcDNA3 (from Invitrogen) 3′-downstream of the cytomegalovirus promoter. Subsequently, the cDNA of the ligand-binding domain (LBD) of the human PPARgamma receptor (amino acids 1152-Y475; Accession # g1480099) 3′-downstream of the GAL4 DNA binding domain was cloned. Cloning and sequencing of the PPARgamma expression plasmid pcDNA3-GAL4-humanPPARgammaLBD again took place in analogy to the description in Sambrook J. et. al. (Molecular cloning, Cold Spring Harbor Laboratory Press, 1989). Besides the luciferase reporter plasmid pGL3basic-5×GAL4-TK and the PPARgamma expression plasmid pcDNA3-GAL4-humanPPARgammaLBD, also used for the cellular PPARgamma assay are the reference plasmid pRL-CMV (from Promega) and the plasmid pBluescript SK(+) from Stratagene. All four plasmids were prepared using a plasmid preparation kit from Qiagen, which ensured a plasmid quality with a minimal endotoxin content, before transfection into HEK cells.
The activity of PPARgamma agonists is determined in a 4-day assay which is described below. Before the transfection, HEK cells are cultivated in DMEM medium (#41965-039, Invitrogen) which is mixed with the following additions: 10% FCS (#16000-044, Invitrogen), 1% penicillin-streptomycin solution (#15140-122, Invitrogen) and 2 mM L-glutamine (#25030-024, Invitrogen).
Firstly, solution A, a transfection mixture which contains all four plasmids previously described in addition to DMEM medium, is prepared. […]

SMILES: CCc1oc(-c2cccc(C(F)(F)F)c2)nc1CO[C@H]1CCC[C@@H](COC(C)(C)C(=O)O)C1 [Example 5, 2-{(1R,3S)-3-[5-Ethyl-2-(3-trifluoromethylphenyl)oxazol-4-ylmethoxy]cyclo-hexylmethoxy}-2-methylpropionic acid]
EC50 (human PPARalpha): 12 nM
EC50 (human PPARgamma): 1500 nM

SMILES: Cc1oc(-c2ccc3ccccc3c2)nc1CO[C@H]1CCC[C@@H](COC(C)(Cc2ccccc2)C(=O)O)C1 (mixture of isomers) [Example 21, 2-Methyl-2-{(1R,3S)-3-[5-methyl-2-(naphth-2-yl)oxazol-4-ylmethoxy]-cyclohexyimethoxy}-3-phenylpropionic acid]
EC50 (human PPARalpha): 5.8 nM
EC50 (human PPARgamma): 600 nM

SMILES: CCc1oc(-c2cccc(OC)c2)nc1CO[C@H]1CCC[C@@H](COC(C)(Cc2ccccc2)C(=O)O)C1 (mixture of isomers) [Example 16, 2-{(1R,3S)-3-[5-Ethyl-2-(3-methoxyphenyl)oxazol-4-ylmethoxy]cyclohexylmethoxy}-2-methyl-3-phenylpropionic acid]
EC50 (human PPARalpha): 17 nM
EC50 (human PPARgamma): 400 nM

SMILES: CCCC(C)(OC[C@@H]1CCC[C@H](OCc2nc(-c3ccc4ccccc4c3)oc2CC)C1)C(=O)O (mixture of isomers) [Example 13, 2-{(1R,3S)-3-[5-Ethyl-2-(naphth-2-yl)oxazol-4-ylmethoxy]cyclohexylmethoxy}-2-methylpentanoic acid]
EC50 (human PPARalpha): 6.6 nM
EC50 (human PPARgamma): 130 nM

SMILES: CCc1oc(-c2ccc(C)cc2)nc1CO[C@H]1CCC[C@@H](COC(C)(Cc2ccccc2)C(=O)O)C1 (mixture of isomers) [Example 17, 2-[(1R,3S)-3-(5-Ethyl-2-p-tolyloxazol-4-ylmethoxy)cyclohexylmethoxy]-2-methyl-3-phenylpropionic acid]
EC50 (human PPARalpha): 0.16 nM
EC50 (human PPARgamma): 510 nM

SMILES: CCc1oc(-c2ccc(C(C)C)cc2)nc1CO[C@H]1CCC[C@@H](COC(C)(Cc2ccccc2)C(=O)O)C1 (mixture of isomers) [Example 20, 2-{(1R,3S)-3-[5-Ethyl-2-(4-isopropylphenyl)oxazol-4-ylmethoxy]cyclohexylmethoxy}-2-methyl-3-phenylpropionic acid]
EC50 (human PPARalpha): 0.54 nM
EC50 (human PPARgamma): 170 nM

The remaining lines, values ahead:

EC50 (human PPARalpha): 4.1 nM
EC50 (human PPARgamma): 870 nM
SMILES: CCCC(C)(OC[C@@H]1CCC[C@H](OCc2nc(-c3ccc(C)cc3)oc2CC)C1)C(=O)O (mixture of isomers) [Example 11, 2-[(1R,3S)-3-(5-Ethyl-2-p-tolyloxazol-4-ylmethoxy)cyclohexylmethoxy]-2-methyl-pentanoic acid]

EC50 (human PPARalpha): 2 nM
EC50 (human PPARgamma): 1100 nM
SMILES: CCc1oc(-c2ccc3ccccc3c2)nc1CO[C@H]1CCC[C@@H](COC(C)(C)C(=O)O)C1 [Example 4, 2-{(1R,3S)-3-[5-Ethyl-2-(napth-2-yl)oxazol-4-ylmethoxy]cyclohexylmethoxy}-2-methylpropionic acid]

EC50 (human PPARalpha): 19 nM
EC50 (human PPARgamma): 670 nM
SMILES: CCc1oc(-c2ccc(CC(C)C)cc2)nc1CO[C@H]1CCC[C@@H](COC(C)(C)C(=O)O)C1 [Example 3, 2-{(1R,3S)-3-[5-Ethyl-2-(4-isobutylphenyl)-oxazol-4-ylmethoxy]cyclohexylmethoxy}-2-methylpropionic acid]

EC50 (human PPARgamma): > 10000 nM
SMILES: Cc1ccc(-c2nc(CO[C@H]3CCC[C@@H](COC(C)(C)C(=O)O)C3)c(C)o2)cc1 [*]

EC50 (human PPARalpha): 3.5 nM
EC50 (human PPARgamma): 2900 nM
SMILES: CCc1oc(-c2ccc(C)cc2)nc1CO[C@H]1CCC[C@@H](COC(C)(C)C(=O)O)C1 [Example 2, 2-[(1R,3S)-3-(5-Ethyl-2-p-tolyloxazol-4-ylmethoxy)cyclohexylmethoxy]-2-methylpropionic acid]

EC50 (human PPARalpha): 0.38 nM and 0.53 nM
SMILES: CCCC(C)(OC[C@@H]1CCC[C@H](OCc2nc(-c3ccc(C(C)C)cc3)oc2CC)C1)C(=O)O (mixture of isomers) [Example 14, 2-{(1R,3S)-3-[5-Ethyl-2-(4-isopropylphenyl)oxazol-4-ylmethoxy}cyclohexylmethoxy]-2-methylpentanoic acid]

— patent US7956077B2, “2-{-3,′2-(phenyl)-oxazol-4-ylmethoxyl-cyclohexyl methoxy}-propionic acid derivatives used as peroxisome proliferator-activated receptor (PPAR) ligands for the treatment of hyperlipidemia and diabetes” (Sanofi-Aventis Deutschland GmbH, priority 2004, dated 2011)
